Measured values published in ChEMBL document CHEMBL5550205, “Discovery of a NCOA4 Degrader for Labile Iron-Dependent Ferroptosis Inhibition” (J Med Chem, 2024).

Tested on: AML12
Experiment: Protection against CCl4-induced ferroptosis in mouse AML12 cells assessed as cell viability
Format: functional, cell-based

For `CCOC(=O)c1ccc(NC2CCCCC2)c(N)c1`, which EC50 is on record?
Its EC50 is 0.104 µM.
